Like-named read-outs stand apart in the source and are kept apart here.
How the values were obtained:
[1] = system: hMPV-GFP virus; experiment: microbe, parasite or virus in culture; type: cell-based, Human Metapneumovirus; settings: VERO cells, hMPV-GFP MOI=1.25, 48 hrs, GFP-expressing cells counted
Method in brief: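 VERO cells infected with GFP-expressing hMPV at MOI 1.25 and exposed to compound in 10-point 3-fold dilutions (typical final 40,300–2 nM) for 48 h at 37 °C. GFP-positive cells counted by imaging; same-well CellTiter-Glo for cytotoxicity. IC50 and CC50 from 4-parameter logistic fits.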

[2] = system: RSV-A2-GFP virus; experiment: microbe, parasite or virus in culture; type: cell-based, Human Respiratory Syncytial Virus; settings: Calu-1 cells, RSV-A2-GFP MOI=1.2, 96 hrs, GFP-expressing cells counted
Method in brief: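 Assay-ready frozen Calu-1 cells (20,000 cells/mL) were infected with RSV-A2-GFP at MOI 1.2 in DMEM with 2% FBS and exposed to a 10-point 3-fold compound dilution for 96 h at 37 °C. GFP-positive cells were counted by imaging, with same-well CellTiter-Glo for cytotoxicity. IC50 and CC50 came from 4-parameter logistic fits.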

[3] = Table II Summary of Activities for hMPV, read-out: RSV EC50
[4] = Table I Summary of Activities for RSV, read-out: RSV EC50
[5] = Vero, 48 h, read-out: RSV EC50, Table II Summary of Activities for hMPV
[6] = human respiratory syncytial virus, Calu-1, 96 h, read-out: RSV EC50, Table I Summary of Activities for RSV

With Cn1nc(-c2cscn2)cc1C(=O)N1C[C@@H]2[C@H](C1)[C@H]2Oc1cc(C(C)(C)N)cc(N2CCC(C)(C)CC2)n1 [Example 39, ((1R,5S,6s)-6-((4-(2-aminopropan-2-yl)-6-(4,4-dimethylpiperidin-1-yl)pyridin-2-yl)oxy)-3-azabicyclo[3.1.0]hexan-3-yl)(1-methyl-3-(thiazol-4-yl)-1H-pyrazol-5-yl)methanone] the EC50 [1, 3] was over 100 nM and the EC50 [2, 4] was under 10 nM.
Cn1nc(-c2ncco2)cc1C(=O)N1C[C@@H]2[C@H](C1)[C@H]2Oc1cc(C(C)(C)N)cc(N2CCC(C(F)(F)F)CC2)n1 [Example 40, ((1R,5S,6s)-6-((4-(2-aminopropan-2-yl)-6-(4-(trifluoromethyl)piperidin-1-yl)pyridin-2-yl)oxy)-3-azabicyclo[3.1.0]hexan-3-yl)(1-methyl-3-(oxazol-2-yl)-1H-pyrazol-5-yl)methanone] gave an EC50 [1, 3] of over 100 nM and an EC50 [2, 4] of under 10 nM.
Cn1nc(-c2cscn2)cc1C(=O)N1C[C@@H]2[C@H](C1)[C@H]2Oc1cc(C(C)(C)N)cc(N2CCC(C(F)(F)F)CC2)n1 [Example 41, ((1R,5S,6s)-6-((4-(2-aminopropan-2-yl)-6-(4-(trifluoromethyl)piperidin-1-yl)pyridin-2-yl)oxy)-3-azabicyclo[3.1.0]hexan-3-yl)(1-methyl-3-(thiazol-4-yl)-1H-pyrazol-5-yl)methanone] showed an EC50 [1, 3] of over 100 nM and an EC50 [2, 4] of under 10 nM.
In the case of Cn1nc(-c2cscn2)cc1C(=O)N1C[C@@H]2[C@H](C1)[C@H]2Oc1cc(C(C)(C)N)cc(OCC23CC(C2)C3)n1 [Example 42, ((1R,5S,6s)-6-((4-(2-aminopropan-2-yl)-6-(bicyclo[1.1.1]pentan-1-ylmethoxy)pyridin-2-yl)oxy)-3-azabicyclo[3.1.0]hexan-3-yl)(1-methyl-3-(thiazol-4-yl)-1H-pyrazol-5-yl)methanone], the EC50 [1, 3] is reported as over 100 nM and the EC50 [2, 4] is reported as under 10 nM.
Cn1nc(-c2cscn2)cc1C(=O)N1C[C@@H]2[C@H](C1)[C@H]2Oc1cc(C(N)=O)cc(-c2ccc(F)cc2)n1 [Example 47, 2-(4-fluorophenyl)-6-(((1R,5S,6s)-3-(1-methyl-3-(thiazol-4-yl)-1H-pyrazole-5-carbonyl)-3-azabicyclo[3.1.0]hexan-6-yl)oxy)isonicotinamide] was tested, and the EC50 [1, 5] was over 100 nM and the EC50 [2, 6] was under 10 nM.
In the case of Cn1nc(-c2cscn2)cc1C(=O)N1C[C@@H]2[C@H](C1)[C@H]2Oc1cc(C(C)(C)C(N)=O)cc(-c2ccc(F)cc2)n1 [Example 48, 2-(2-(4-fluorophenyl)-6-(((1R,5S,6s)-3-(1-methyl-3-(thiazol-4-yl)-1H-pyrazole-5-carbonyl)-3-azabicyclo[3.1.0]hexan-6-yl)oxy)pyridin-4-yl)-2-methylpropanamide], the EC50 [1, 5] is reported as over 100 nM and the EC50 [2, 6] is reported as under 10 nM.
In the case of Cn1nc(-c2cscn2)cc1C(=O)N1C[C@@H]2[C@H](C1)[C@H]2Oc1cc(C2(N)CCC2)cc(-c2ccc(F)cc2)n1 [Example 52, ((1R,5S,6s)-6-((4-(1-aminocyclobutyl)-6-(4-fluorophenyl)pyridin-2-yl)oxy)-3-azabicyclo[3.1.0]hexan-3-yl)(1-methyl-3-(thiazol-4-yl)-1H-pyrazol-5-yl)methanone], the EC50 [1, 3] is reported as over 100 nM and the EC50 [2, 4] is reported as under 10 nM.
With Cn1nc(-c2cscn2)cc1C(=O)N1C[C@@H]2[C@H](C1)[C@H]2Oc1cc(C2(N)CCCC2)cc(-c2ccc(F)cc2)n1 [Example 53, ((1R,5S,6s)-6-((4-(1-aminocyclopentyl)-6-(4-fluorophenyl)pyridin-2-yl)oxy)-3-azabicyclo[3.1.0]hexan-3-yl)(1-methyl-3-(thiazol-4-yl)-1H-pyrazol-5-yl)methanone] the EC50 [1, 5] was over 100 nM and the EC50 [2, 6] was under 10 nM.
Cn1nc(-c2cscn2)cc1C(=O)N1C[C@@H]2[C@H](C1)[C@H]2Oc1cc(C(C)(C)CN)cc(-c2ccc(F)cc2)n1 [Example 54, ((1R,5S,6s)-6-((4-(1-amino-2-methylpropan-2-yl)-6-(4-fluorophenyl)pyridin-2-yl)oxy)-3-azabicyclo[3.1.0]hexan-3-yl)(1-methyl-3-(thiazol-4-yl)-1H-pyrazol-5-yl)methanone] showed an EC50 [1, 5] of 10 to 100 nM and an EC50 [2, 6] of under 10 nM.
Cn1nc(-c2cscn2)cc1C(=O)N1C[C@@H]2[C@H](C1)[C@H]2Oc1cc(-c2ccc(F)cc2)cc(C(C)(C)N)n1 [Example 59, ((1R,5S,6s)-6-((6-(2-aminopropan-2-yl)-4-(4-fluorophenyl)pyridin-2-yl)oxy)-3-azabicyclo[3.1.0]hexan-3-yl)(1-methyl-3-(thiazol-4-yl)-1H-pyrazol-5-yl)methanone] gave an EC50 [1, 5] of over 100 nM and an EC50 [2, 6] of under 10 nM.
With Cn1nc(-c2ncco2)cc1C(=O)N1C[C@@H]2[C@H](C1)[C@H]2Oc1cc(-c2ccc(F)cc2)cc(C(C)(C)N)n1 [Example 60, ((1R,5S,6s)-6-((6-(2-aminopropan-2-yl)-4-(4-fluorophenyl)pyridin-2-yl)oxy)-3-azabicyclo[3.1.0]hexan-3-yl)(1-methyl-3-(oxazol-2-yl)-1H-pyrazol-5-yl)methanone] the EC50 [1, 3] was over 100 nM and the EC50 [2, 4] was under 10 nM.
Cn1nc(-c2cscn2)cc1C(=O)N1C[C@@H]2[C@H](C1)[C@H]2Oc1cc(C(C)(C)N)cc(C2(C)CCCC2)n1 [Example 63, ((1R,5S,6s)-6-((4-(2-aminopropan-2-yl)-6-(1-methylcyclopentyl)pyridin-2-yl)oxy)-3-azabicyclo[3.1.0]hexan-3-yl)(1-methyl-3-(thiazol-4-yl)-1H-pyrazol-5-yl)methanone] was tested, and the EC50 [1, 5] was over 100 nM and the EC50 [2, 6] was under 10 nM.
Cn1nc(-c2ccon2)cc1C(=O)N1C[C@@H]2[C@H](C1)[C@H]2Oc1cc(C(C)(C)N)cc(N2CCC(C(F)(F)F)CC2)n1 [Example 64, ((1R,5S,6s)-6-((4-(2-aminopropan-2-yl)-6-(4-(trifluoromethyl)piperidin-1-yl)pyridin-2-yl)oxy)-3-azabicyclo[3.1.0]hexan-3-yl)(3-(isoxazol-3-yl)-1-methyl-1H-pyrazol-5-yl)methanone] gave an EC50 [1, 5] of over 100 nM and an EC50 [2, 6] of under 10 nM.
Cn1nc(-c2ncco2)cc1C(=O)N1C[C@@H]2[C@H](C1)[C@H]2Oc1cc(C(C)(C)N)cc(N2CCC(C)(C)CC2)n1 [Example 65, ((1R,5S,6s)-6-((4-(2-aminopropan-2-yl)-6-(4,4-dimethylpiperidin-1-yl)pyridin-2-yl)oxy)-3-azabicyclo[3.1.0]hexan-3-yl)(1-methyl-3-(oxazol-2-yl)-1H-pyrazol-5-yl)methanone] was tested, and the EC50 [1, 5] was over 100 nM and the EC50 [2, 6] was under 10 nM.
With Cn1nc(-n2cccn2)cc1C(=O)N1C[C@@H]2[C@H](C1)[C@H]2Oc1cc(C(C)(C)N)cc(-c2ccc(F)cc2)n1 [Example 67, ((1R,5S,6s)-6-((4-(2-aminopropan-2-yl)-6-(4-fluorophenyl)pyridin-2-yl)oxy)-3-azabicyclo[3.1.0]hexan-3-yl)(1′-methyl-1′H-[1,3′-bipyrazol]-5′-yl)methanone] the EC50 [1, 5] was over 100 nM and the EC50 [2, 6] was under 10 nM.
In the case of Cn1nc(-n2nccn2)cc1C(=O)N1C[C@@H]2[C@H](C1)[C@H]2Oc1cc(C(C)(C)N)cc(-c2ccc(F)cc2)n1 [Example 68, ((1R,5S,6s)-6-((4-(2-aminopropan-2-yl)-6-(4-fluorophenyl)pyridin-2-yl)oxy)-3-azabicyclo[3.1.0]hexan-3-yl)(1-methyl-3-(2H-1,2,3-triazol-2-yl)-1H-pyrazol-5-yl)methanone], the EC50 [1, 3] is reported as 10 to 100 nM and the EC50 [2, 4] is reported as under 10 nM.

From patent publication US12565494B2, “Inhibitors of human respiratory syncytial virus and metapneumovirus” (priority 2022, dated 2026)
